{"source": "ChEMBL document CHEMBL1150227", "about": "“A new dammarane-type triterpene glycoside from Polyscias fulva” (2001)", "key": {"Candida albicans": {"tested_on": "Candida albicans", "experiment": "Antifungal activity against Candida albicans", "assay_type": "functional"}, "Cryptococcus neoformans": {"tested_on": "Cryptococcus neoformans", "experiment": "Antifungal activity against Cryptococcus neoformans", "assay_type": "functional"}}, "data": [{"smiles": "C[C@@H]1O[C@@H](O[C@H]2[C@H](O[C@H]3CC[C@@]4(C)[C@@H](CC[C@]5(C)[C@@H]4CC=C4[C@@H]6CC(C)(C)CC[C@]6(C(=O)O)CC[C@]45C)[C@]3(C)CO)OC[C@H](O)[C@@H]2O)[C@H](O)[C@H](O)[C@H]1O", "note": "[ALPHA-HEDERIN]", "values": [{"measurement": "MIC", "setting": "Candida albicans", "value": 6.25, "unit": "µg/mL"}, {"measurement": "MIC", "setting": "Cryptococcus neoformans", "value": 25, "unit": "µg/mL"}]}]}
